Test results taken from US8603528B2, “Compositions and method for the reduction of post-operative pain” (ABYRX, Inc., priority 2004, dated 2013).
Entries after “also recorded” stand apart in the source; their conditions may differ.

Test: Evaluation of elution rates of analgesic from a 0.5 gm composition button in phosphate buffer, HPLC-UV
Assay type: physicochemical
Method: The surface area exposed to the buffer is about 0.785 sq. cm. One cc aliquots of the buffer solution are taken over a three day period, every 2 hours during business hours of day one, then several times on each of days two and three. […] The same procedure was followed for measurement of the elution of bupivacaine free base and hydrochloride.

| effect of the added material on the elution rate of the anesthetic from the putty | period over which the free base of lidocaine is eluted (liquid component of the putty changed from triethyl citrate to Pluronic L-35 and tocopheryl acetate) | period over which the free base of lidocaine is released (putty-like composition comprising lidocaine free base, calcium stearate and liquid triethyl citrate) | SMILES |
| --- | --- | --- | --- |
| retard the elution | – | – | CCCCCCCCCCCC(=O)OCC [ethyl laurate] |
| retard the elution | – | – | CCCCCCCCCCCCOC(C)=O [lauryl acetate] |
| – | eight | three | CCN(CC)CC(=O)Nc1c(C)cccc1C [lidocaine free base, lidocaine, reference compound] |

| SMILES | effect of the added material on the elution rate of the anesthetic from the putty | period over which the free base of lidocaine is eluted (liquid component of the putty changed from triethyl citrate to Pluronic L-35 and tocopheryl acetate) | period over which the free base of lidocaine is released (putty-like composition comprising lidocaine free base, calcium stearate and liquid triethyl citrate) |
| --- | --- | --- | --- |
| CC(=O)Oc1c(C)c(C)c2c(c1C)CCC(C)(CCC[C@H](C)CCC[C@H](C)CCCC(C)C)O2 (some centres unmarked) [tocopheryl acetate] | slow down the elution rate; also recorded: reduces the elution rate; also recorded: retard the elution | – | – |
